Tested on: PBMC of RRMS patients
Assay: Gene expression microarray analysis (HG-U133A-2) of PBMC from RRMS patients treated with LAQ, ancillary study to ALLEGRO
Format: in vivo, human
Conditions: for Fold-Change (1.0 vs. 0.0): one month of treatment
Excerpt: The goal of this ancillary study was to characterize gene expression changes and corresponding biological mechanisms induced in PBMC of RRMS patients by LAQ treatment. According to ALLEGRO clinical trial inclusion criteria, 25 patients were randomly assigned to receive LAQ (n=13, age 38.8±2.3 years, female/male ratio: 8/5) or placebo (n=12, age 37.2±3.4 years, female/male ratio: 8/4).
Peripheral blood samples were obtained from RRMS patients at baseline before start of LAQ treatment or placebo, after 0, 1, 6 and 24 month of treatment (visit 0, 1, 6 and 7 according to ALLEGRO clinical trial protocol correspondently) for gene microarray analysis.
Briefly, 1) Peripheral blood mononuclear cells (PBMC) were obtained from RRMS patients that participated in ALLEGRO and were treated daily with 0.6 mg LAQ or placebo. PBMC were subjected for gene expression analysis (HU-133A-2-Affymatrix arrays) at baseline and at 1 and 6 months of LAQ treatment; 2) Data was analyzed by Partek Genomics Solution software. Most informative genes (MIGs) were defined as those that differentiated between groups with p<0.01. Gene functional annotation, enrichment and pathway analysis were performed by Ingenuity software. For each time point, genes that changed in placebo group were excluded from further analysis; and 3) Verification of LAQ related mechanism was performed by Western blot.
PBMC were extracted from 15 ml peripheral blood, separated by Ficoll-Hypaque gradient. Total RNA was extracted using both Trizol (Invitrogen, USA) and Phase-Lock-Gel columns (Eppendorf, Germany) including a DNase digestion step. RNA integrity was assessed by RNA Experion automated electrophoresis system (Bio-Rad Laboratories, Hercules, Calif.).
Probe synthesis using 3 μg total RNA, hybridization, detection, and scanning was performed according to the standard Affymetrix, Inc. USA protocols; cDNA was synthesized using the Two-Cycle cDNA Synthesis Kit (Affymetrix, Inc., USA), and in-vitro transcription performed with the GeneChip IVT Labeling Kit (Affymetrix, Inc., USA). The biotin-labeled IVT-RNA was hybridized to HG-U133A-2 arrays containing 18,400 gene transcripts, each corresponding to 14,500 well-annotated human genes, washed in a GeneChip Fluidics Station 450 (Hewlett Packard, USA, GeneArray-™ scanner G2500A) and scanned according to the manufacturer's protocol (Affymetrix, Inc., USA).
Data analysis was performed on Partek Genomics Solution software (www.partek.com; Partek Incorporated, St. Louis, Mo.). Expression values were computed from raw CEL files by applying the Robust Multi-Chip Average (RMA) background correction algorithm. RMA correction included: 1) values background correction; 2) quintile normalization; 3) log 2 transformation; and 4) median polish summarization. The ANOVA, Repeated Measures and correlation analysis implicated in Partek software ware applied to evaluate LAQ effects. Most informative genes MIGs were defined as those that differentiated between experimental groups with p<0.01. All p-values were calculated for False Discovery Rate (FDR) multiple test correction at p=0.05.
Additionally, significance of individual genes was tested by parametric T-test and non parametric Mann-Whitney test using Bootstrapping approach based on repeated permutations of the data with 5% FDR for multiple testing.
Gene functional annotation, enrichment, and pathway analyses to identify the leading biological pathways that operated under LAQ treatment were performed by Ingenuity Pathways Analysis software (www.ingenuity.com).
ANOVA analysis was used to compare PBMC gene expression after 1, 6 or 24 month of LAQ treatment with baseline gene expression.
For each time point inventors performed analysis source of variation in dataset. (FIG. 1). Age, gender and batch effects were considered as confounders regarding LAQ or Placebo related changes. For each time point genes associated with Placebo effect were evaluated and excluded from further analysis. […]

## CCN(C(=O)c1c(O)c2c(Cl)cccc2n(C)c1=O)c1ccccc1 [LAQ, 5-chloro-N-ethyl-4-hydroxy-1-methyl-2-oxo-N-phenyl-1,2-dihydroquinoline-3-carboxamide]
LYVE1 220037_s_at
  Fold-Change (1.0 vs. 0.0): −1.139
MARCH6 201736_s_at
  Fold-Change (1.0 vs. 0.0): −1.139
MAX 210734_x_at
  Fold-Change (1.0 vs. 0.0): −1.284
MFAP3L 205442_at
  Fold-Change (1.0 vs. 0.0): −1.854
MFAP3L 210493_s_at
  Fold-Change (1.0 vs. 0.0): −1.464
MYL9 201058_s_at
  Fold-Change (1.0 vs. 0.0): −1.74
MYST3 202423_at
  Fold-Change (1.0 vs. 0.0): −1.08
NAT8B 206964_at
  Fold-Change (1.0 vs. 0.0): −1.746
NENF 218407_x_at
  Fold-Change (1.0 vs. 0.0): −1.141
NRGN 204081_at
  Fold-Change (1.0 vs. 0.0): −1.604
PDE5A 206757_at
  Fold-Change (1.0 vs. 0.0): −1.213
PDGFA 205463_s_at
  Fold-Change (1.0 vs. 0.0): −1.536
PGRMC1 201120_s_at
  Fold-Change (1.0 vs. 0.0): −1.432
PGRMC1 201121_s_at
  Fold-Change (1.0 vs. 0.0): −1.443
POPDC3 219926_at
  Fold-Change (1.0 vs. 0.0): −1.1575
POU1F1 207846_at
  Fold-Change (1.0 vs. 0.0): −1.091
PPM1A 203966_s_at
  Fold-Change (1.0 vs. 0.0): −1.182
PRKG1 207119_at
  Fold-Change (1.0 vs. 0.0): −1.185
PRPF4B 202127_at
  Fold-Change (1.0 vs. 0.0): −1.135
PSD3 218613_at
  Fold-Change (1.0 vs. 0.0): −1.258
PTCRA 211837_s_at
  Fold-Change (1.0 vs. 0.0): −1.274
PTCRA 215492_x_at
  Fold-Change (1.0 vs. 0.0): −1.526
PTGIS 210702_s_at
  Fold-Change (1.0 vs. 0.0): −1.095
RBM25 212031_at
  Fold-Change (1.0 vs. 0.0): −1.105
RET 211421_s_at
  Fold-Change (1.0 vs. 0.0): −1.221
SDPR 218711_s_at
  Fold-Change (1.0 vs. 0.0): −1.662
SELP 206049_at
  Fold-Change (1.0 vs. 0.0): −1.642
SEPT6 214298_x_at
  Fold-Change (1.0 vs. 0.0): −1.133
SF3B1 201071_x_at
  Fold-Change (1.0 vs. 0.0): −1.0879
SLC37A1 218928_s_at
  Fold-Change (1.0 vs. 0.0): −1.126
SPARC 200665_s_at
  Fold-Change (1.0 vs. 0.0): −1.776
SPARC 212667_at
  Fold-Change (1.0 vs. 0.0): −1.73
SRRT 201680_x_at
  Fold-Change (1.0 vs. 0.0): −1.118
TAL1 206283_s_at
  Fold-Change (1.0 vs. 0.0): −1.752
TAS2R4 221392_at
  Fold-Change (1.0 vs. 0.0): −1.203
TBXA2R 336_at
  Fold-Change (1.0 vs. 0.0): −1.433
TGFB1 203085_s_at
  Fold-Change (1.0 vs. 0.0): −1.24
TMED10 200929_at
  Fold-Change (1.0 vs. 0.0): −1.099
TNFSF4 207426_s_at
  Fold-Change (1.0 vs. 0.0): −1.7061
TPM1 210986_s_at
  Fold-Change (1.0 vs. 0.0): −1.555
TPM1 210987_x_at
  Fold-Change (1.0 vs. 0.0): −1.447
TPTE 220205_at
  Fold-Change (1.0 vs. 0.0): −1.158
TRIM58 215047_at
  Fold-Change (1.0 vs. 0.0): −1.777
TUBB2B 214023_x_at
  Fold-Change (1.0 vs. 0.0): −1.159
VCL 200931_s_at
  Fold-Change (1.0 vs. 0.0): −1.406
WASF3 204042_at
  Fold-Change (1.0 vs. 0.0): −1.606
WDR48 222157_s_at
  Fold-Change (1.0 vs. 0.0): −1.103
XK 206698_at
  Fold-Change (1.0 vs. 0.0): −1.88
XYLT1 213725_x_at
  Fold-Change (1.0 vs. 0.0): 1.314
ZNF415 205514_at
  Fold-Change (1.0 vs. 0.0): −1.154
After one month of LAQ treatment
  p, differential expression of cellular movement and migration: 3.49*10^−4
After one month of treatment
  genes (#), Caveolar mediated endocytosis: 8
  genes (#), Cellular movement: Adhesion & migration of phagocytes: 9
  genes (#), Chemotaxis of neutrophils: 4
  genes (#), Clathrin mediated endocytosis: 12
  genes (#), Hematological system: Activation of blood platelets: 13
  genes (#), Hematological system: Aggregation of blood cells: 19
  genes (#), Hematological system: Aggregation of blood platelets: 18
  genes (#), Hematological system: Coagulation of blood: 14
  genes (#), Inflammatory response: Adhesion of phagocytes: 9
  genes (#), Inflammatory response: TGFb signaling: 10
  genes (#), Transmigration of leukocytes: 8

From patent publication US20160201132A1, “GENE EXPRESSION BIOMARKERS OF LAQUINIMOD RESPONSIVENESS” (Teva Pharmaceutical Industries Ltd., priority 2013, published 2016)
